Reference: article PMC10041525, “New Dual Inhibitors of Bacterial Topoisomerases with Broad-Spectrum Antibacterial Activity and In Vivo Efficacy against Vancomycin-Intermediate Staphylococcus aureus” (Journal of Medicinal Chemistry, 2023)
Values after ≈ are worked out from the molar mass of the structure shown. Where two headings read alike, the source gives them in different places.

How the values were obtained:
E. faecium (n = 13) = assay: MIC broth microdilution at IHMA Europe; format: cell-based; details: for MIC: Enterococcus faecium, read-out: MIC
S. pneumoniae ATCC 49619 = assay: IHMA QC MIC; format: cell-based
Excerpt: Supplement jm2c01905_si_004.xlsx, sheet "QC" | column: MIC [µg/mL]

[1] = tested on: Haemophilus influenzae (n = 14); assay: MIC broth microdilution at IHMA Europe; format: cell-based, H. influenzae; details: for MIC: Haemophilus influenzae, read-out: MIC
E. faecalis ATCC 29212 = tested on: E. faecalis ATCC 29212; set-up: method as in earlier work; details: QC range for E. faecalis ATCC 29212, ref CLSI; cited from earlier work

Work on `CC1(C)S[C@@H]2[C@H](NC(=O)[C@H](N)c3ccccc3)C(=O)N2[C@H]1C(=O)O` [Ampicillin, ampicillin] yielded an MIC (E. faecium (n = 13); E. faecium IHMA N° 1764866) of over 32 mg/L, an MIC (E. faecium (n = 13); E. faecium IHMA N° 1765436) of over 32 mg/L and an MIC (E. faecium (n = 13); E. faecium IHMA N° 1765746) of over 32 mg/L. The MIC (E. faecium (n = 13); E. faecium IHMA N° 1893573) was over 32 mg/L, the MIC (E. faecium (n = 13); E. faecium IHMA N° 1893846) was over 32 mg/L and the MIC (E. faecium (n = 13); E. faecium IHMA N° 1893942) was over 32 mg/L. For the same molecule, the MIC (E. faecium (n = 13); E. faecium IHMA N° 1894055) was over 32 mg/L, the MIC (E. faecium (n = 13); E. faecium IHMA N° 1897027) was over 32 mg/L and the MIC (E. faecium (n = 13); E. faecium IHMA N° 1897101) was over 32 mg/L. The MIC (E. faecium (n = 13); E. faecium IHMA N° 1904592) was over 32 mg/L, the MIC (E. faecium (n = 13); E. faecium IHMA N° 2075051) was over 32 mg/L and the MIC (E. faecium (n = 13); E. faecium IHMA N° 2077718) was over 32 mg/L. The MIC (E. faecium (n = 13); E. faecium IHMA N° 2083787) was over 32 mg/L, the “Cumulative % at MIC” value (E. faecium (n = 13); MIC >32 µg/mL) was 100.0% and the “No. of isolates at MIC” value (E. faecium (n = 13); MIC >32 µg/mL) was 13. For the same molecule, the MIC (S. pneumoniae ATCC 49619; QC strain S. pneumoniae ATCC 49619, test date 2021-11-26) was 0.06 mg/L (≈ 0.172 µM), the MIC (S. pneumoniae ATCC 49619; Streptococcus pneumoniae, ATCC49619, QC strain S. pneumoniae ATCC 49619, test date 2021-11-11, read-out: MIC) was 0.06 mg/L (≈ 0.172 µM) and the MIC ([1]; H. influenzae IHMA N° 1227715) was 16 mg/L (≈ 45.8 µM). It also gave an MIC ([1]; H. influenzae IHMA N° 1241620) of 4 mg/L (≈ 11.4 µM), an MIC ([1]; H. influenzae IHMA N° 1244149) of 16 mg/L (≈ 45.8 µM) and an MIC ([1]; H. influenzae IHMA N° 1249803) of 2 mg/L (≈ 5.72 µM). It also gave an MIC ([1]; H. influenzae IHMA N° 1254355) of 2 mg/L (≈ 5.72 µM), an MIC ([1]; H. influenzae IHMA N° 1258580) of 16 mg/L (≈ 45.8 µM) and an MIC ([1]; H. influenzae IHMA N° 1262734) of 8 mg/L (≈ 22.9 µM). The MIC ([1]; H. influenzae IHMA N° 1272723) was 16 mg/L (≈ 45.8 µM), the MIC ([1]; H. influenzae IHMA N° 1286846) was 8 mg/L (≈ 22.9 µM) and the MIC ([1]; H. influenzae IHMA N° 1337530) was 32 mg/L (≈ 91.6 µM). For the same molecule, the MIC ([1]; H. influenzae IHMA N° 1440085) was 8 mg/L (≈ 22.9 µM), the MIC ([1]; H. influenzae IHMA N° 1479509) was 8 mg/L (≈ 22.9 µM) and the MIC ([1]; H. influenzae IHMA N° 1952952) was 4 mg/L (≈ 11.4 µM). The MIC ([1]; H. influenzae IHMA N° 2047461) was 32 mg/L (≈ 91.6 µM), the “Cumulative % at MIC” value ([1]; MIC 2 µg/mL) was 14.3% and the “No. of isolates at MIC” value ([1]; MIC 2 µg/mL) was 2. The “Cumulative % at MIC” value ([1]; MIC […] µg/mL) was 85.7%, the “No. of isolates at MIC” value ([1]; MIC […] µg/mL) was 4 and the “Cumulative % at MIC” value ([1]; MIC 32 µg/mL) was 100.0%. For the same molecule, the “No. of isolates at MIC” value ([1]; MIC 32 µg/mL) was 2 and the “MIC, CLSI Range” value (E. faecalis ATCC 29212) was 0,5 - 2 µg/mL.
